Columns and labels:
[1] = biological target: T1, PAD4 (Homo sapiens (Human), UniProt Q9UM07); test: Ammonia release biochemical assay (citrullination)
[2] = biological target: T1, PAD4; test: FP binding assay; conditions: for actively inhibiting PAD4 enzyme activity, FP Binding assay: summary of Table 1
[3] = read-out: NH3 release biochemical assay PAD4 IC50
[4] = Table 1, class A, read-out: IC50 value, ammonia release biochemical assay

T1 sequence (Q9UM07 whole entry): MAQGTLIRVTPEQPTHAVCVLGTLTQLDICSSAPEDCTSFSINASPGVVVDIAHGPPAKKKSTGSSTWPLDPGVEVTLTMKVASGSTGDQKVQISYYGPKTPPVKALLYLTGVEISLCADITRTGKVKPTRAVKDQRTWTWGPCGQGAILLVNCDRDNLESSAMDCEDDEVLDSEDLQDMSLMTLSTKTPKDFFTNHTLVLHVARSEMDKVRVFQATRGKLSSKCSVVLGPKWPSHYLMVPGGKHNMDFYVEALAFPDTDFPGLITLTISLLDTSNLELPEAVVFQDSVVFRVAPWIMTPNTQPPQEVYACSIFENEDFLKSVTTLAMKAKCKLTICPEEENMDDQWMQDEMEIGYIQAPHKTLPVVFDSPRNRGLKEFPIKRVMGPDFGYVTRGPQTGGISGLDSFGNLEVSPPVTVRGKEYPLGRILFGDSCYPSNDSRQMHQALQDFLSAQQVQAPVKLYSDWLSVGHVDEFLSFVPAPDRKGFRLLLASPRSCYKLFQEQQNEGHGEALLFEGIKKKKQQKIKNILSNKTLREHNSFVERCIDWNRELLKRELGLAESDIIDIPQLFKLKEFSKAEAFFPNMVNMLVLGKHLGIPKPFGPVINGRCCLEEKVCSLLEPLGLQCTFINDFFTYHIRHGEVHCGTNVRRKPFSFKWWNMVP

Row | IC50 [1, 3] | IC50 [2] | actively inhibiting PAD4 enzyme activity, FP Binding assay [2] | IC50 [1, 4] | SMILES
1 | < 1000 nM | < 1000 nM | actively inhibiting PAD4 enzyme activity |  | Cc1c(-c2cc3ccccc3n2Cc2ccccn2)nc2cc(C(=O)N3CCC[C@@H](N)C3)ccn12 [Compound 16, (R)-(3-Aminopiperidin-1-yl)(3-methyl-2-(1-(pyridin-2-ylmethyl)-1H-indol-2-yl)imidazo[1,2-a]pyridin-7-yl)methanone]
2 | < 1000 nM | < 1000 nM |  |  | Cc1c(-c2cc3ccc(F)cc3n2CC2CC2)nc2cc(C(=O)N3CCC[C@@H](N)C3)ccn12 [Compound 28, (R)-(3-Aminopiperidin-1-yl)(2-(1-(cyclopropylmethyl)-6-fluoro-1H-indol-2-yl)-3-methylimidazo[1,2-a]pyridin-7-yl)methanone]
3 | < 1000 nM | < 1000 nM |  |  | Cc1c(-c2cc3cc(F)ccc3n2CC2CC2)nc2cc(C(=O)N3CCC[C@@H](N)C3)ccn12 [Compound 29, (R)-(3-Aminopiperidin-1-yl)(2-(1-(cyclopropylmethyl)-5-fluoro-1H-indol-2-yl)-3-methylimidazo[1,2-a]pyridin-7-yl)methanone]
4 | < 1000 nM | < 1000 nM | actively inhibiting PAD4 enzyme activity |  | COc1ccc2cc(-c3nc4cc(C(=O)N5CCC[C@@H](N)C5)ccn4c3C)n(CC3CC3)c2c1 [Compound 23, (R)-(3-Aminopiperidin-1-yl)(2-(1-(cyclopropylmethyl)-6-methoxy-1H-indol-2-yl)-3-methylimidazo[1,2-a]pyridin-7-yl)methanone]
5 | < 1000 nM | < 1000 nM | actively inhibiting PAD4 enzyme activity |  | Cc1c(-c2cc3ccccc3n2Cc2ccsc2)nc2cc(C(=O)N3CCC[C@@H](N)C3)ccn12 [Compound 36, (R)-(3-aminopiperidin-1-yl)(3-methyl-2-(1-(thiophen-3-ylmethyl)-1H-indol-2-yl)imidazo[1,2-a]pyridin-7-yl)methanone]
6 | < 1000 nM | < 1000 nM |  |  | Cc1cccc2cc(-c3nc4cc(C(=O)N5CCC[C@@H](N)C5)ccn4c3C)n(CC3CC3)c12 [Compound 30, (R)-(3-Aminopiperidin-1-yl)(2-(1-(cyclopropylmethyl)-7-methyl-1H-indol-2-yl)-3-methylimidazo[1,2-a]pyridin-7-yl)methanone]
7 | < 1000 nM | < 1000 nM | actively inhibiting PAD4 enzyme activity | ≤ 1000 nM | CCn1c(-c2nc3cc(C(=O)N4CCC[C@@H](N)C4)ccn3c2C)cc2cc(F)ccc21 [Compound 39, (R)-(3-aminopiperidin-1-yl)(2-(1-ethyl-5-fluoro-1H-indol-2-yl)-3-methylimidazo[1,2-a]pyridin-7-yl)methanone]
8 | > 10000 nM | > 10000 nM |  |  | N[C@@H]1CCCN(C(=O)c2ccn3c(-c4ccccc4)c(-c4cc5ccccc5n4CC4CC4)nc3c2)C1 [Compound 32, (R)-(3-Aminopiperidin-1-yl)(2-(1-(cyclopropylmethyl)-1H-indol-2-yl)-3-phenylimidazo[1,2-a]pyridin-7-yl)methanone]
9 | < 1000 nM | < 1000 nM | actively inhibiting PAD4 enzyme activity | ≤ 1000 nM | Cc1c(-c2cc3ccccc3n2Cc2ccc(F)cc2)nc2cc(C(=O)N3CCC[C@@H](N)C3)ccn12 [Compound 13, (R)-(3-Aminopiperidin-1-yl)(2-(1-(4-fluorobenzyl)-1H-indol-2-yl)-3-methylimidazo[1,2-a]pyridin-7-yl)methanone]
